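48-hour exposure; five concentrations; linearly interpolated endpoints. TGI is the concentration that stops growth completely.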
Experiments:
Experiment in all cases: inhibition of tumour cell growth, NCI panel, 48 h
RXF 393 renal = system: RXF 393 renal
NCI-H226 lung = system: NCI-H226 lung
MDA-MB-231 breast = system: MDA-MB-231 breast
U251 CNS = system: U251 CNS
MDA-N = system: MDA-N
PC-3 prostate = system: PC-3 prostate
OVCAR-8 ovarian = system: OVCAR-8 ovarian
DU-145 prostate = system: DU-145 prostate
A498 renal = system: A498 renal
SR leukemia = system: SR leukemia
786-0 renal = system: 786-0 renal
SNB-19 CNS = system: SNB-19 CNS
HT29 colon = system: HT29 colon
BT-549 breast = system: BT-549 breast
MALME-3M melanoma = system: MALME-3M melanoma
NCI-H23 lung = system: NCI-H23 lung
ACHN renal = system: ACHN renal
HCT-15 colon = system: HCT-15 colon
EKVX NSCLC = system: EKVX NSCLC
SF-268 CNS = system: SF-268 CNS
NCI-H522 lung = system: NCI-H522 lung
HCC-2998 colon = system: HCC-2998 colon
HOP-92 NSCLC = system: HOP-92 NSCLC
SNB-75 CNS = system: SNB-75 CNS
SK-MEL-28 melanoma = system: SK-MEL-28 melanoma
NCI/ADR-RES ovarian = system: NCI/ADR-RES ovarian
SF-539 CNS = system: SF-539 CNS
NCI-H460 lung = system: NCI-H460 lung
MOLT-4 leukemia = system: MOLT-4 leukemia
HS 578T breast = system: HS 578T breast
UACC-257 melanoma = system: UACC-257 melanoma
SK-MEL-5 melanoma = system: SK-MEL-5 melanoma
HOP-62 NSCLC = system: HOP-62 NSCLC
HCT-116 colon = system: HCT-116 colon
A549 NSCLC = system: A549 NSCLC
MCF7 breast = system: MCF7 breast
K-562 leukemia = system: K-562 leukemia
MDA-MB-435 = system: MDA-MB-435
UO-31 renal = system: UO-31 renal
OVCAR-3 ovarian = system: OVCAR-3 ovarian
LOX IMVI melanoma = system: LOX IMVI melanoma
SF-295 CNS = system: SF-295 CNS
CCRF-CEM leukemia = system: CCRF-CEM leukemia
SW-620 colon = system: SW-620 colon
HL-60(TB) leukemia = system: HL-60(TB) leukemia
OVCAR-4 ovarian = system: OVCAR-4 ovarian
OVCAR-5 ovarian = system: OVCAR-5 ovarian
UACC-62 melanoma = system: UACC-62 melanoma
TK-10 renal = system: TK-10 renal
CAKI-1 renal = system: CAKI-1 renal
M14 melanoma = system: M14 melanoma
KM12 colon = system: KM12 colon
SN12C renal = system: SN12C renal
IGROV1 ovarian = system: IGROV1 ovarian
T-47D breast = system: T-47D breast
SK-OV-3 ovarian = system: SK-OV-3 ovarian
COLO 205 colon = system: COLO 205 colon
RPMI-8226 leukemia = system: RPMI-8226 leukemia
SK-MEL-2 melanoma = system: SK-MEL-2 melanoma

SMILES: CC(C)(C)C1CC[C@H](O)[C@H]([C@H](O)CC2CC(=O)N(c3ccccc3)C(=O)C2)C1 (stereo partly drawn)
- TGI (RXF 393 renal): > 100 µM
- TGI (NCI-H226 lung): > 100 µM
- TGI (MDA-MB-231 breast): > 100 µM
- TGI (U251 CNS): > 100 µM
- TGI (MDA-N): > 100 µM
- TGI (PC-3 prostate): > 100 µM
- TGI (OVCAR-8 ovarian): > 100 µM
- TGI (DU-145 prostate): > 100 µM
- TGI (A498 renal): > 100 µM
- TGI (SR leukemia): > 100 µM
- TGI (786-0 renal): > 100 µM
- TGI (SNB-19 CNS): > 100 µM
- TGI (HT29 colon): > 100 µM
- TGI (BT-549 breast): > 100 µM
- TGI (MALME-3M melanoma): > 100 µM
- TGI (NCI-H23 lung): > 100 µM
- TGI (ACHN renal): > 100 µM
- TGI (HCT-15 colon): > 100 µM
- TGI (EKVX NSCLC): > 100 µM
- TGI (SF-268 CNS): > 100 µM
- TGI (NCI-H522 lung): > 100 µM
- TGI (HCC-2998 colon): > 100 µM
- TGI (HOP-92 NSCLC): > 100 µM
- TGI (SNB-75 CNS): > 100 µM
- TGI (SK-MEL-28 melanoma): > 100 µM
- TGI (NCI/ADR-RES ovarian): > 100 µM
- TGI (SF-539 CNS): > 100 µM
- TGI (NCI-H460 lung): > 100 µM
- TGI (MOLT-4 leukemia): > 100 µM
- TGI (HS 578T breast): > 100 µM
- TGI (UACC-257 melanoma): > 100 µM
- TGI (SK-MEL-5 melanoma): > 100 µM
- TGI (HOP-62 NSCLC): > 100 µM
- TGI (HCT-116 colon): > 100 µM
- TGI (A549 NSCLC): > 100 µM
- TGI (MCF7 breast): > 100 µM
- TGI (K-562 leukemia): > 100 µM
- TGI (MDA-MB-435): > 100 µM
- TGI (UO-31 renal): > 100 µM
- TGI (OVCAR-3 ovarian): > 100 µM
- TGI (LOX IMVI melanoma): > 100 µM
- TGI (SF-295 CNS): > 100 µM
- TGI (CCRF-CEM leukemia): > 100 µM
- TGI (SW-620 colon): > 100 µM
- TGI (HL-60(TB) leukemia): > 100 µM
- TGI (OVCAR-4 ovarian): > 100 µM
- TGI (OVCAR-5 ovarian): > 100 µM
- TGI (UACC-62 melanoma): > 100 µM
- TGI (TK-10 renal): > 100 µM
- TGI (CAKI-1 renal): > 100 µM
- TGI (M14 melanoma): > 100 µM
- TGI (KM12 colon): > 100 µM
- TGI (SN12C renal): > 100 µM
- TGI (IGROV1 ovarian): > 100 µM

SMILES: Cc1ccc(S(=O)(=O)N(CC(O)COc2ccccc2)c2ccc(F)cc2F)cc1 (stereo not drawn)
- TGI (T-47D breast): 46.4 µM
- TGI (RXF 393 renal): 27 µM
- TGI (NCI-H226 lung): 41.9 µM
- TGI (MDA-MB-231 breast): 39 µM
- TGI (U251 CNS): 27.5 µM
- TGI (MDA-N): 29.8 µM
- TGI (SK-OV-3 ovarian): 41.6 µM
- TGI (COLO 205 colon): 28.6 µM
- TGI (PC-3 prostate): 25.3 µM
- TGI (OVCAR-8 ovarian): 31.3 µM
- TGI (DU-145 prostate): 46.9 µM
- TGI (A498 renal): 28.7 µM
- TGI (SR leukemia): 73.6 µM
- TGI (786-0 renal): 31 µM
- TGI (SNB-19 CNS): 41.9 µM
- TGI (HT29 colon): 29.4 µM
- TGI (MALME-3M melanoma): 36 µM
- TGI (NCI-H23 lung): 27.7 µM
- TGI (ACHN renal): 30.6 µM
- TGI (HCT-15 colon): 30.8 µM
- TGI (EKVX NSCLC): 35.7 µM
- TGI (SF-268 CNS): 31.8 µM
- TGI (HCC-2998 colon): 29.7 µM
- TGI (HOP-92 NSCLC): 12.4 µM
- TGI (SNB-75 CNS): 29.4 µM
- TGI (SK-MEL-28 melanoma): 29.7 µM
- TGI (NCI/ADR-RES ovarian): 33.3 µM
- TGI (SF-539 CNS): 30 µM
- TGI (NCI-H460 lung): 33.7 µM
- TGI (MOLT-4 leukemia): 94.2 µM
- TGI (HS 578T breast): 39.9 µM
- TGI (UACC-257 melanoma): 33.3 µM
- TGI (SK-MEL-5 melanoma): 27.8 µM
- TGI (HOP-62 NSCLC): 30.1 µM
- TGI (A549 NSCLC): 26.9 µM
- TGI (K-562 leukemia): > 100 µM
- TGI (MDA-MB-435): 31.4 µM
- TGI (UO-31 renal): 26.9 µM
- TGI (OVCAR-3 ovarian): 34.4 µM
- TGI (LOX IMVI melanoma): 27.3 µM
- TGI (RPMI-8226 leukemia): 34.5 µM
- TGI (SF-295 CNS): 34.4 µM
- TGI (CCRF-CEM leukemia): 53.8 µM
- TGI (SW-620 colon): 31.9 µM
- TGI (SK-MEL-2 melanoma): 30.4 µM
- TGI (HL-60(TB) leukemia): 57.6 µM
- TGI (OVCAR-4 ovarian): 23.8 µM
- TGI (OVCAR-5 ovarian): 34.1 µM
- TGI (UACC-62 melanoma): 31.9 µM
- TGI (TK-10 renal): 45.9 µM
- TGI (CAKI-1 renal): 29.9 µM
- TGI (M14 melanoma): 34.1 µM
- TGI (KM12 colon): 68.1 µM
- TGI (SN12C renal): 34.2 µM
